Data on four compounds can be found in patent US4767770A, “Method of inhibiting aromatase” (Eli Lilly and Company, priority 1984, dated 1988).

SMILES strings stand for the structures. Read-outs that look alike come from different tables or passages of the source.

The test system of assay [1] is estrogen synthesis (ovarian estradiol, estrone, estriol). The experiment in a line: Estrogen Synthesis Inhibition in Rats: ovarian steroid concentration after [3H]-testosterone. The format is in vivo, immature female Wistar rats. As to conditions: 7 days. As to the method: Test compounds were administered for seven days as a component of the diet. Control animals received diet without the test compound. Beginning on the fourth day of the test, all animals treated with the test compound and one half of the control animals were given a subcutaneous injection of 1.0 mg of testosterone propionate in corn oil. The remaining control animals received only an equivalent volume of corn oil.
The ovarian steroids were extracted with 1.5 ml of 9:1 (v/v) toluene/ethanol to which had been added 25 to 100 mcg each of unlabelled estradiol, estriol, and estrone, and approximately 1000 dpm of [^14 C]-estradiol. The samples were vortexed, centrifuged at 500×g for 10 minutes, and the organic phase was transferred to a conical vial. Two additional extractions were performed on the residue in the same way. The pooled organic extracts were evaporated for subsequent thin-layer chromatography.
Ovarian proteins were precipitated by the addition of 5.0 ml of ethanol to the remaining aqueous phase. After an overnight incubation at 4° C., the samples were centrifuged at 1500×g for 10 minutes. The supernatant was discarded and the pellet was dissolved in 0.3N potassium hydroxide.
The organic residue from each above extraction was redissolved in 9:1 (v/v) dichloromethane/methanol. The solution of each sample was applied to separate silica gel thin layer chromatography plates which contained a fluorescent indicator. The plates were developed in the first dimension with 160:38:1.5:0.5 (v/v/v/v) dichloromethane/ethyl acetate/methanol/acetic acid to within 3 cm of the top of the plate. After air-drying, the plate was developed in the second dimension with 180:19:1 (v/v/v) dichloromethane/methanol/ammonium hydroxide.
The spots were scraped from the plate using a glass wool plugged Pasteur pipet attached to a vacuum line. The steroids were eluted directly into scintillation vials by the addition of 0.2 ml of dichloromethane followed by two washes each of 2.0 ml of methanol. The organic solvent was evaporated and 10.0 ml of scintillation fluid (Beckman Ready Solv-NA) was added to the vials. Samples were analyzed by liquid scintillation spectrometry. Corrections were made based on the recoveries of the [^14 C]-steroid. Steroid concentrations are expressed as femtomoles per milligram protein.

Assay [2] relates to DMBA-induced mammary tumors. The assay can be described thus: DMBA-induced Mammary Tumor Inhibition. As to conditions: 300 ppm in diet (approx. 30 mg/kg/day); for Mean Tumor Area, Start: baseline. The format is in vivo, female Sprague-Dawley rats. As to the method:
Mammary tumors were produced in female Sprague-Dawley rats which were 50-60 days old by the gavage administration of 20 mg of 7,12-dimethylbenz[a]anthracene (DMBA). About six weeks after DMBA administration, the mammary glands were palpated at weekly intervals for the appearance of tumors. Whenever one or more tumors appeared and were measurable in an animal, that animal was selected for experimentation. […] Each control and test group contained 8 animals. The test compound was administered mixed into the food at a concentration of 300 ppm (corresponding to an appropriate daily dose of 30 mg/kg). Every experiment included a group of control rats having tumors and were given food without the compound admixed. […] The area of each tumor was calculated by multiplying the shortest and longest diameters of the tumor. The treatment and measurement of animals continued for 4-5 weeks at which time the final areas of the tumors were determined. For each compound (and control) at each dose level, the change in the mean tumor area was determined.
*dosed in the diet. 300 ppm corresponds to approximately 30 mg/kg/day.

For another assay, the target named is T1, aromatase (Rattus norvegicus, UniProt P22443).
T1 sequence (P22443 1-508): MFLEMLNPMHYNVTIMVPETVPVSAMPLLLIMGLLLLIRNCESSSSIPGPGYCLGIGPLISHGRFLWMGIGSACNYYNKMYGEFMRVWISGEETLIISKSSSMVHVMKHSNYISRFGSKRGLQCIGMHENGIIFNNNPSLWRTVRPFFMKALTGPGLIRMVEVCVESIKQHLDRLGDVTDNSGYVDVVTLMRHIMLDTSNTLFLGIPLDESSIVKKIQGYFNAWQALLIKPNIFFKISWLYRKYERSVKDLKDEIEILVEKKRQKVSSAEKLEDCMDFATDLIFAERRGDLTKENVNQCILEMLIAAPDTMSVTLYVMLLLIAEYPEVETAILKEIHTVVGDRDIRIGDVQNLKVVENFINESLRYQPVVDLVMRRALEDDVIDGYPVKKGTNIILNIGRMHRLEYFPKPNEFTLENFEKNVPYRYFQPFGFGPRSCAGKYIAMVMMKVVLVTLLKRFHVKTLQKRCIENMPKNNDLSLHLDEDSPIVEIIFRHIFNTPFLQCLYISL
The assay can be described thus: biochemical.

Assay [3] deals with estrogen synthesis (aromatization); uterus. The experiment in a line: Estrogen Synthesis Inhibition in Rats: uterine weight of testosterone propionate-treated immature rats. The format is in vivo, immature female Wistar rats. As to conditions: 7 days. As to the method:
Immature female Wistar rats (45-55 grams) were divided into control and test groups of 2-8 animals each. Test compounds were administered for seven days as a component of the diet. Control animals received diet without the test compound. Beginning on the fourth day of the test, all animals treated with the test compound and one half of the control animals were given a subcutaneous injection of 1.0 mg of testosterone propionate in corn oil. The remaining control animals received only an equivalent volume of corn oil. On the seventh day of the test, rats treated with testosterone propionate were injected subcutaneously with 100 μCi of [^3 H]-testosterone in 50 μl of 3:1 (v/v) saline-ethanol.
After two hours, the animals were killed by decapitation. Uteri were isolated, trimmed of extraneous connective tissue, and weighed. […] In the control animals treated with testosterone propionate, estrogens produced by aromatization stimulated the uterus resulting in an increase in weight.
*ppm in feed. 300 ppm corresponds to approximately 30 mg/kg/day; 200 ppm
corresponds to approximately 20 mg/kg/day; 30 ppm corresponds to
approximately 3 mg/kg/day.

The subject of the next assay is breast cancer. As to conditions: result in words; see Cancer Research, Vol. 42, Suppl. 8:3261s (1982); cited from earlier work.

Protocol for aromatase: In this test system, ovarian microsomes are obtained from rats treated with pregnant mares serum gonadotropin. Test compounds are added to reaction vials containing 0.1 μM 4-androstene-3,17-dione, 100,000 dpm 1,2[^3 H]-androstenedione, the microsomes and a NADPH generating system. The concentrations of the inhibitors tested ranged between 0.005 and 10 μM.

For `Fc1ccc(N(Cc2cccnc2)C2=NCCS2)c(F)c1` [N--(2,4-difluorophenyl)-N--(4,5-dihydro-2-thiazolyl)-3-pyridinemethanamine], the “Mean Steroid Concentration, estrone” value was 0.65 femtomoles per milligram of protein in assay [1] (Test II, 30 ppm in feed (approx. 3 mg/kg/day), testosterone-treated control 0.64) and 0.31 femtomoles per milligram of protein in assay [1] (Test II, 300 ppm in feed (approx. 30 mg/kg/day), value marked + (p < 0.05 vs testosterone-treated control, 0.64)). Moreover, the “Mean Steroid Concentration, estriol” value in assay [1] (Test II, 30 ppm in feed (approx. 3 mg/kg/day), testosterone-treated control 1.98) was 1.56 femtomoles per milligram of protein; in assay [1] (Test II, 300 ppm in feed (approx. 30 mg/kg/day), testosterone-treated control 1.98), 1.18 femtomoles per milligram of protein. Also, the “Mean Steroid Concentration, estradiol” value in assay [1] (Test II, 30 ppm in feed (approx. 3 mg/kg/day), testosterone-treated control 2.07) is on record as 1.27 femtomoles per milligram of protein; in assay [1] (Test II, 300 ppm in feed (approx. 30 mg/kg/day), value marked + (p < 0.05 vs testosterone-treated control, 2.07)) it was 1.05 femtomoles per milligram of protein. In addition, the “Mean Tumor Area, Start” value in assay [2] (Test I, 5 weeks, control 73.9) turned out to be 83.6 mm^2. Also, in assay [2] (Test I, 5 weeks, control 1140.0), the “Mean Tumor Area, Finish” value is 536.0 mm^2. Moreover, the concentration for a half-maximal effect (EC50) on aromatase (rat ovarian microsomes, substrate (androstenedione) 0.1 μM) came out at 28 nM. Moreover, the “Mean Uterine Weight” value in assay [3] (Test II, 30 ppm in feed (approx. 3 mg/kg/day), testosterone-treated control 176.7) came out at 140.0 mg; in assay [3] (Test II, 300 ppm in feed (approx. 30 mg/kg/day), value marked + (p < 0.05 vs testosterone-treated control, 176.7)) it was 104.5 mg.
`Clc1ccc(N(Cc2cccnc2)C2=NCCS2)cc1` [N--(4-chlorophenyl)-N--(4,5-dihydro-2-thiazolyl)-3-pyridinemethanamine]: the “Mean Steroid Concentration, estrone” value in assay [1] (Test I, 30 ppm in feed (approx. 3 mg/kg/day), testosterone-treated control 0.10) is 0.31 femtomoles per milligram of protein; in assay [1] (Test I, 300 ppm in feed (approx. 30 mg/kg/day), testosterone-treated control 0.10), 0.09 femtomoles per milligram of protein. Besides, the “Mean Steroid Concentration, estriol” value in assay [1] (Test I, 30 ppm in feed (approx. 3 mg/kg/day), testosterone-treated control 0.24) is given as 0.27 femtomoles per milligram of protein; in assay [1] (Test I, 300 ppm in feed (approx. 30 mg/kg/day), testosterone-treated control 0.24) it was 0.46 femtomoles per milligram of protein. The “Mean Steroid Concentration, estradiol” value in assay [1] (Test I, 30 ppm in feed (approx. 3 mg/kg/day), testosterone-treated control 1.43) is 1.46 femtomoles per milligram of protein; in assay [1] (Test I, 300 ppm in feed (approx. 30 mg/kg/day), testosterone-treated control 1.43), 1.42 femtomoles per milligram of protein. For the same compound, in assay [2] (Test II, 4 weeks, control 62.8), the “Mean Tumor Area, Start” value is 61.4 mm^2. Also, in assay [2] (Test II, 4 weeks, control 1087.0), the “Mean Tumor Area, Finish” value was determined as 464.0 mm^2. This compound came in with an EC50 on aromatase of 68 nM. For the same compound, the “Mean Uterine Weight” value in assay [3] (Test I, 30 ppm in feed (approx. 3 mg/kg/day), value marked + (p < 0.05 vs testosterone-treated control, 211.5)) is 141.5 mg; in assay [3] (Test I, 300 ppm in feed (approx. 30 mg/kg/day), value marked + (p < 0.05 vs testosterone-treated control, 211.5)) it was 136.0 mg.
In the case of `CCC1(c2ccc(N)cc2)CCC(=O)NC1=O` (stereo not drawn) [aminoglutethimide], the “effect in treatment of breast cancer” value with breast cancer was “beneficial effect in treatment of breast cancer”.
Turning to `C[C@]12C=CC(=O)C=C1CC[C@@H]1[C@@H]2CC[C@]2(C)OC(=O)CC[C@@H]12` [testolactone], the “effect in treatment of breast cancer” value with breast cancer is on record as “beneficial effect in treatment of breast cancer”.
